Assay results as given in patent US9822074B2, “Dihydropyridinone MGAT2 inhibitors” (BRISTOL-MYERS SQUIBB COMPANY, priority 2013, dated 2017).

Molecular target: human MGAT2 (Homo sapiens (Human), UniProt Q3SYC2)
Assay: MGAT LCMS Assay (MGAT2 in vitro enzyme assay)
Assay type: biochemical
Details: Human MGAT-2 membranes expressed in Sf9 cells; 100 μM 2-oleoylglycerol, 15 μM oleoyl-Coenzyme A; read-out: h-MGAT LCMS IC50
Description: The MGAT enzyme reactions were performed in Corning FALCON® 96-well Polypropylene plates, in a total volume of 60 μL of 50 mM Potassium Phosphate buffer pH 7.4, containing a final concentration of 100 μM 2-oleoylglycerol, 15 μM oleoyl-Coenzyme A and 0.0013 μg/μL Human or Mouse MGAT-2 or 0.0026 μg/μL Rat recombinant MGAT-2 membranes expressed in Sf9 cells. Assay plates were run through a fully automated robotics system and shaken for 5 seconds every minute for a total 10 minutes. The reactions were then quenched with 120 μL of ice cold methanol containing 1 μg/mL 1,2-distearoyl-rac-glycerol as the internal standard. Plates were shaken for 2 minutes and spun down to remove protein precipitation. After the spin, samples were transferred to LC/MS compatible PCR plates. For LC/MS analysis, a ThermoFisher Surveyor pump, utilizing a Waters Symmetry C8, 50×2.1 mm column, was used for the chromatography of enzyme products. The buffer system consists of 0.1% formic acid in water with a mobile phase consisting 0.1% formic acid in methanol. The shallow gradient is 90-100% mobile phase in 0.2 min with a total run time of 2.3 min. The first 0.5 minutes of each injection was diverted to waste to eliminate the presence of Phosphate buffer in the enzymatic reaction. The column was run at 0.6 mL/min and a temperature of 65° C. […]

human MGAT2, sequence (Q3SYC2 whole entry): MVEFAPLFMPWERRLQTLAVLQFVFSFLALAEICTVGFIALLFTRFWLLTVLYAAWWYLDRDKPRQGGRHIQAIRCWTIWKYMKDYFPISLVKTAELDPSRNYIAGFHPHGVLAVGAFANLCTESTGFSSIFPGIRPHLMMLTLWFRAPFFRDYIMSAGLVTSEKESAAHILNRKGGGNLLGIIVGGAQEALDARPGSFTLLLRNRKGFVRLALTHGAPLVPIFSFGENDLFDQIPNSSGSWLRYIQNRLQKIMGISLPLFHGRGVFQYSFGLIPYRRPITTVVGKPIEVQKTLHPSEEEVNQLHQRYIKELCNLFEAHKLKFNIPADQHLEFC

SMILES | IC50
CC(C)n1ccc(C2=C(C(=O)NS(=O)(=O)C3CC3)C(=O)N[C@@](c3ccc(CCCCC(F)(F)F)cc3F)(C(F)(F)F)C2)n1 [Example 49, (S)-N-(cyclopropylsulfonyl)-6-(2-fluoro-4-(5,5,5-trifluoropentyl)phenyl)-4-(1-isopropyl-1H-pyrazol-3-yl)-2-oxo-6-(trifluoromethyl)-1,2,5,6-tetrahydropyridine-3-carboxamide] | 0.035 µM
O=C1N[C@@](c2ccc(CCCCC(F)(F)F)cc2F)(C(F)(F)F)CC(c2ccn(C3CCC3)n2)=C1C(=O)NS(=O)(=O)C1CC1 [Example 50, (S)-4-(1-cyclobutyl-1H-pyrazol-3-yl)-N-(cyclopropylsulfonyl)-6-(2-fluoro-4-(5,5,5-trifluoropentyl)phenyl)-2-oxo-6-(trifluoromethyl)-1,2,5,6-tetrahydropyridine-3-carboxamide] | 0.016 µM
